US6716978B2, “Therapeutically active compounds based on indazole bioisostere replacement of catechol in PDE4 inhibitors” (Pfizer Inc, priority 1997, dated 2004)

Row | melting point [°C] | SMILES
1 | 72 to 73 | CCc1nn(-c2ccc(F)cc2)c2cc(Br)ccc12 [Example 20, 6-Bromo-3-ethyl-1-(4-fluorophenyl)-1H-indazole]
2 | 214 to 216 | CCc1nn(-c2ccc(F)cc2)c2cc(C3=CCC(C(=O)O)CC3)ccc12 (centres unmarked) [Example 24, 4-(3-ethyl-1-(4-fluorophenyl)-1H-indazol-6-yl)-cyclohex-3-ene-carboxylic acid]
